Reference: patent US8802597B2, “Herbicidal pyrimidines” (E I du Pont de Nemours and Company, priority 2003, dated 2014)

Key:
Assay type in all cases: in vivo
[1] = system: Surinam grass (Brachiaria decumbens); assay: Test B pre/postemergence
Summary of the method: (§1)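 Visual rating, 0 (no effect) to 100 (complete control) versus controls, taken 13–15 days after treatment in greenhouse. Compounds formulated in non-phytotoxic solvent plus surfactant; pre: sprayed after seeding; post: plants at 1- to 4-leaf stage, 2–18 cm.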

[2] = system: barnyardgrass (Echinochloa crus-galli); assay: Test B pre/postemergence
Summary of the method: as §1

[3] = system: cocklebur (Xanthium strumarium); assay: Test B pre/postemergence
Summary of the method: as §1

corn (Zea mays) = assay: Test B pre/postemergence
Summary of the method: as §1

[4] = system: crabgrass (Digitaria sanguinalis); assay: Test B pre/postemergence
Summary of the method: as §1

[5] = system: giant foxtail (Setaria faberii); assay: Test B pre/postemergence
Summary of the method: as §1

[6] = system: lambsquarters (Chenopodium album); assay: Test B pre/postemergence
Summary of the method: as §1

[7] = system: morningglory (Ipomoea coccinea); assay: Test B pre/postemergence
Summary of the method: as §1

[8] = system: pigweed (Amaranthus retroflexus); assay: Test B pre/postemergence
Summary of the method: as §1

[9] = system: velvetleaf (Abutilon theophrasti); assay: Test B pre/postemergence
Summary of the method: as §1

[10] = system: wheat (Triticum aestivum); assay: Test B pre/postemergence
Summary of the method: as §1

[11] = system: blackgrass (Alopecurus myosuroides); assay: Test B postemergence; conditions: for Blackgrass plant response rating: scale 0 to 100 (0 no effect, 100 complete control)
Summary of the method: as §1

wild oat (Avena fatua) = assay: Test B postemergence; conditions: for Oat, Wild plant response rating: scale 0 to 100 (0 no effect, 100 complete control)
Summary of the method: as §1

[12] = system: barnyardgrass (Echinochloa crus-galli); assay: Test B flooded paddy test; conditions: Flood
Summary of the method: (§2)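 Plants were grown to the 2-leaf stage before treatment, then kept in a greenhouse for 13 to 15 days. Injury was rated visually against untreated controls on a 0 to 100 scale, where 0 is no effect and 100 is complete control.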

[13] = system: duck salad (Heteranthera limosa); assay: Test B flooded paddy test; conditions: Flood, scale 0 to 100
Summary of the method: as §2

rice (Oryza sativa) = assay: Test B flooded paddy test; conditions: Flood, scale 0 to 100
Summary of the method: as §2

[14] = system: umbrella sedge (Cyperus difformis); assay: Test B flooded paddy test; conditions: Flood, scale 0 to 100
Summary of the method: as §2

[15] = Postemergence, 125 g ai/ha, scale 0 to 100 (0 no effect, 100 complete control)
[16] = Postemergence, 500 g ai/ha, scale 0 to 100
[17] = Preemergence, 125 g ai/ha, scale 0 to 100 (0 no effect, 100 complete control)
[18] = Preemergence, 500 g ai/ha, scale 0 to 100 (0 no effect, 100 complete control)
[19] = Postemergence, 62 g ai/ha, scale 0 to 100 (0 no effect, 100 complete control)
[20] = Preemergence, 62 g ai/ha, scale 0 to 100, 0 no effect, 100 complete control

CC(=O)NN=Cc1nc(C2CC2)nc(N)c1Br [Compound 51]
20: Barnyardgrass plant response rating [2, 15] | Plant response rating, Cocklebur [3, 18] | Blackgrass plant response rating ([11]; 125 g ai/ha) | Oat, Wild plant response rating (wild oat (Avena fatua); 125 g ai/ha)
40: Plant response rating, Surinam Grass [1, 16] | Plant response rating, Morningglory [7, 18] | Plant response rating, Wheat [10, 16]
80: Cocklebur plant response rating [3, 15] | Lambsquarters plant response rating [6, 15] | Plant response rating, Lambsquarters [6, 18] | Morningglory plant response rating [7, 15] | Pigweed plant response rating [8, 15] | Plant response rating, Velvetleaf [9, 16]
70: Plant response rating, Pigweed [8, 18] | Velvetleaf plant response rating [9, 15]
30: Crabgrass plant response rating [4, 15] | Plant response rating, Foxtail, Giant [5, 16] | Wheat plant response rating [10, 15] | Plant response rating, Blackgrass ([11]; 500 g ai/ha, scale 0 to 100) | Plant response rating, Oat, Wild (wild oat (Avena fatua); 500 g ai/ha, scale 0 to 100)
60: Plant response rating, Barnyardgrass [2, 16] | Plant response rating, Crabgrass [4, 16]
90: Plant response rating, Cocklebur [3, 16] | Plant response rating, Lambsquarters [6, 16] | Plant response rating, Morningglory [7, 16] | Plant response rating, Pigweed [8, 16]
0: Surinam Grass plant response rating [1, 15] | Plant response rating, Surinam Grass [1, 17] | Plant response rating, Surinam Grass [1, 18] | Plant response rating, Barnyardgrass [2, 17] | Plant response rating, Barnyardgrass [2, 18] | Plant response rating, Cocklebur [3, 17] | Corn plant response rating (corn (Zea mays); [15]) | Plant response rating, Corn (corn (Zea mays); [16]) | Plant response rating, Corn (corn (Zea mays); [17]) | Plant response rating, Corn (corn (Zea mays); [18]) | Plant response rating, Crabgrass [4, 17] | Plant response rating, Crabgrass [4, 18] | Foxtail, Giant plant response rating [5, 15] | Plant response rating, Foxtail, Giant [5, 17] | Plant response rating, Foxtail, Giant [5, 18] | Plant response rating, Morningglory [7, 17] | Plant response rating, Velvetleaf [9, 17] | Plant response rating, Velvetleaf [9, 18] | Plant response rating, Wheat [10, 17] | Plant response rating, Wheat [10, 18] | Plant response rating, Barnyardgrass ([12]; 1000 g ai/ha, scale 0 (no effect) to 100 (complete control)) | Plant response rating, Ducksalad ([13]; 1000 g ai/ha) | Plant response rating, Rice (rice (Oryza sativa); 1000 g ai/ha) | Plant response rating, Sedge, Umbrella ([14]; 1000 g ai/ha)
10: Plant response rating, Pigweed [8, 17]

CCCOC(=O)c1nc(C2CC2)nc(N)c1Cl [Compound 75]
80: Surinam Grass plant response rating [1, 15] | Plant response rating, Surinam Grass [1, 17] | Barnyardgrass plant response rating [2, 19] | Plant response rating, Barnyardgrass [2, 17] | Plant response rating, Corn (corn (Zea mays); [17]) | Crabgrass plant response rating [4, 15] | Plant response rating, Crabgrass [4, 20] | Foxtail, Giant plant response rating [5, 15] | Plant response rating, Morningglory [7, 20] | Pigweed plant response rating [8, 19] | Plant response rating, Velvetleaf [9, 20]
50: Plant response rating, Corn (corn (Zea mays); [20]) | Wheat plant response rating [10, 19] | Blackgrass plant response rating ([11]; 62 g ai/ha) | Oat, Wild plant response rating (wild oat (Avena fatua); 62 g ai/ha)
70: Surinam Grass plant response rating [1, 19] | Plant response rating, Surinam Grass [1, 20] | Cocklebur plant response rating [3, 19] | Corn plant response rating (corn (Zea mays); [15]) | Crabgrass plant response rating [4, 19] | Velvetleaf plant response rating [9, 19] | Wheat plant response rating [10, 15] | Plant response rating, Wheat [10, 17] | Plant response rating, Barnyardgrass ([12]; 500 g ai/ha, scale 0 to 100) | Plant response rating, Ducksalad ([13]; 500 g ai/ha) | Plant response rating, Rice (rice (Oryza sativa); 500 g ai/ha)
90: Barnyardgrass plant response rating [2, 15] | Plant response rating, Cocklebur [3, 20] | Plant response rating, Cocklebur [3, 17] | Plant response rating, Crabgrass [4, 17] | Plant response rating, Foxtail, Giant [5, 17] | Lambsquarters plant response rating [6, 19] | Pigweed plant response rating [8, 15]
30: Plant response rating, Foxtail, Giant [5, 20] | Plant response rating, Wheat [10, 20]
100: Cocklebur plant response rating [3, 15] | Lambsquarters plant response rating [6, 15] | Plant response rating, Lambsquarters [6, 20] | Plant response rating, Lambsquarters [6, 17] | Morningglory plant response rating [7, 19] | Morningglory plant response rating [7, 15] | Plant response rating, Morningglory [7, 17] | Plant response rating, Pigweed [8, 20] | Plant response rating, Pigweed [8, 17] | Velvetleaf plant response rating [9, 15] | Plant response rating, Velvetleaf [9, 17]
0: Plant response rating, Barnyardgrass ([12]; 125 g ai/ha, scale 0 to 100) | Plant response rating, Ducksalad ([13]; 125 g ai/ha) | Plant response rating, Rice (rice (Oryza sativa); 125 g ai/ha) | Plant response rating, Sedge, Umbrella ([14]; 125 g ai/ha)
10: Plant response rating, Sedge, Umbrella ([14]; 500 g ai/ha)
60: Plant response rating, Barnyardgrass [2, 20] | Corn plant response rating (corn (Zea mays); [19]) | Foxtail, Giant plant response rating [5, 19] | Blackgrass plant response rating ([11]; 125 g ai/ha) | Oat, Wild plant response rating (wild oat (Avena fatua); 125 g ai/ha)

CCCCOC(=O)c1nc(C2CC2)nc(N)c1Cl [Compound 76]
0: Plant response rating, Barnyardgrass ([12]; 125 g ai/ha, scale 0 to 100) | Plant response rating, Ducksalad ([13]; 125 g ai/ha) | Plant response rating, Rice (rice (Oryza sativa); 125 g ai/ha)
90: Plant response rating, Surinam Grass [1, 17] | Barnyardgrass plant response rating [2, 19] | Barnyardgrass plant response rating [2, 15] | Plant response rating, Barnyardgrass [2, 17] | Cocklebur plant response rating [3, 15] | Crabgrass plant response rating [4, 15] | Plant response rating, Crabgrass [4, 17] | Plant response rating, Lambsquarters [6, 20] | Pigweed plant response rating [8, 19] | Velvetleaf plant response rating [9, 19] | Velvetleaf plant response rating [9, 15] | Plant response rating, Velvetleaf [9, 17]
60: Cocklebur plant response rating [3, 19] | Foxtail, Giant plant response rating [5, 19] | Wheat plant response rating [10, 19] | Blackgrass plant response rating ([11]; 125 g ai/ha) | Oat, Wild plant response rating (wild oat (Avena fatua); 125 g ai/ha)
40: Plant response rating, Barnyardgrass [2, 20] | Plant response rating, Foxtail, Giant [5, 20]
70: Surinam Grass plant response rating [1, 19] | Plant response rating, Surinam Grass [1, 20] | Corn plant response rating (corn (Zea mays); [15]) | Plant response rating, Corn (corn (Zea mays); [20]) | Crabgrass plant response rating [4, 19] | Wheat plant response rating [10, 15] | Plant response rating, Wheat [10, 17] | Plant response rating, Barnyardgrass ([12]; 500 g ai/ha, scale 0 to 100) | Plant response rating, Ducksalad ([13]; 500 g ai/ha) | Plant response rating, Sedge, Umbrella ([14]; 500 g ai/ha)
100: Plant response rating, Cocklebur [3, 17] | Lambsquarters plant response rating [6, 19] | Lambsquarters plant response rating [6, 15] | Plant response rating, Lambsquarters [6, 17] | Morningglory plant response rating [7, 19] | Morningglory plant response rating [7, 15] | Plant response rating, Morningglory [7, 20] | Plant response rating, Morningglory [7, 17] | Pigweed plant response rating [8, 15] | Plant response rating, Pigweed [8, 20] | Plant response rating, Pigweed [8, 17]
80: Surinam Grass plant response rating [1, 15] | Plant response rating, Cocklebur [3, 20] | Plant response rating, Corn (corn (Zea mays); [17]) | Plant response rating, Crabgrass [4, 20] | Foxtail, Giant plant response rating [5, 15] | Plant response rating, Foxtail, Giant [5, 17] | Plant response rating, Velvetleaf [9, 20]
30: Plant response rating, Wheat [10, 20] | Plant response rating, Sedge, Umbrella ([14]; 125 g ai/ha)
50: Corn plant response rating (corn (Zea mays); [19]) | Blackgrass plant response rating ([11]; 62 g ai/ha) | Oat, Wild plant response rating (wild oat (Avena fatua); 62 g ai/ha) | Plant response rating, Rice (rice (Oryza sativa); 500 g ai/ha)
